For one assay, the system named is 786-0 cells. As to the kind of experiment: VEGF ELISA Assay. The assay is classed as cell-based. As to conditions: VEGFA concentration in cell culture medium, read-out: VEGF ELISA EC50. On the procedure: Each concentration had duplicated wells. About 20 hours later, medium was removed by suction and each well was supplied with 180 μL of growth medium. About 20 μl freshly-made 10× compound stocks were added to each well. […] The EC50 was calculated by GraphPad Prism using the dose-response-inhibition (four parameter) equation. The cell seeded plate was then subjected to CellTiter-Glo luminescence cell viability assay (Promega) by adding 50 μL of Celltiter Glo reagent into each well and shaking the plate for 8 minutes at 550 rpm (Thermomixer R, Eppendorf) then read luminescence signal in plate reader (3 second delay, 0.5 second/well integration time, Synergy 2 multi Detection Microplate reader) immediately.

Assay [1] addresses T1, HIF-2α HIS TAG-PASB Domain (Homo sapiens, UniProt Q99814).
T1 construct: 100 nM HIF-2α HIS TAG-PASB Domain
As to the kind of experiment: HIF-2α Scintillation Proximity Assay (SPA). The format is binding. As to conditions: 100 nM HIF-2α HIS TAG-PASB Domain. The essentials: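 IC50 values rest on percent inhibition, where the sample signal is scaled between high and low controls. Wells contain about 100 μL: compound dispensed as 2 μL of DMSO solution, 88 μL protein-probe mix and 10 μL of beads.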

A further assay has as its system 786-O-Hif-Luc cells. As to the kind of experiment: Luciferase Assay. The assay is classed as cell-based. As to conditions: 786-O-Hif-Luc cells, about 24 hours, read-out: Luciferase EC50. Here is the method: A pool of infected cells were then selected against 2 μg/mL of puromycin (P8833, Sigma) for 10 days followed by limited dilution to select single clones.
Each concentration was tested in triplicate. After about 24 hours, luciferase activity was determined using ONE-Glo Luciferase Assay Reagent (E6110, Promega) following the manufacturer's recommended procedure. EC50 were calculated by using Dotmatics software.

The mark [2] stands for this setting: Homo sapiens, 786-0, 786-0 cells.
The mark [3] stands for this setting: 150 nM Compound 211 probe, read-out: SPA IC50.

Where two headings read alike, the source gives them in different places.

T1 sequence (Q99814 240-350 limits assumed): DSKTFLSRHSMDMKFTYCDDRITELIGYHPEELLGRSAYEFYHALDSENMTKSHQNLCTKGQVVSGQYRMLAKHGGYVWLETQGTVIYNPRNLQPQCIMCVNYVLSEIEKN

Turning to `CS(=O)(=O)c1ccc(Oc2cncc(C#N)c2)c2c1[C@H](O)[C@H](F)[C@@H]2F` [Compound 97, 5-(((1S,2S,3R)-2,3-difluoro-1-hydroxy-7-(methylsulfonyl)-2,3-dihydro-1H-inden-4-yl)oxy)nicotinonitrile], the results for the concentration giving a half-maximal response (EC50) in the assay on 786-0 cells (setting [2]) and in the assay on 786-O-Hif-Luc cells (24 h) were 163 nM and 174 nM, respectively. For the same molecule, the IC50 in assay [1] (setting [3]) worked out at 74 nM.
For `N=S1(=O)c2ccc(Oc3cc(F)cc(F)c3)c(C(F)F)c2C(O)C1(F)F` (single isomer, unassigned) [Compound 162, 4-(Difluoromethyl)-5-(3,5-difluorophenoxy)-2,2-difluoro-3-hydroxy-1-imino-2,3-dihydro-1H-1λ^4-benzo[b]thiophene 1-oxide], in that order: 90 nM, 69 nM and 29 nM.
In the case of `CS(=O)(=O)c1ccc(Oc2cc(F)cc(Br)c2)c2c1[C@H](O)C(F)(F)C2` [Compound 68, (S)-4-(3-bromo-5-fluorophenoxy)-2,2-difluoro-7-(methylsulfonyl)-2,3-dihydro-1H-inden-1-ol], the EC50 in the assay with 786-0 cells (setting [2]) turned out to be 62 nM; with 786-O-Hif-Luc cells (24 h) it was 22 nM. Moreover, in assay [1] (setting [3]), the IC50 is less than 5 nM.
`NC1c2c(ccc(Oc3cc(F)cc(F)c3)c2C(F)F)S(=O)(=O)C1(F)F` (stereo not drawn) [Compound 129, 3-Amino-4-(difluoromethyl)-5-(3,5-difluorophenoxy)-2,2-difluoro-2,3-dihydrobenzo[b]thiophene 1,1-dioxide]: the EC50 with 786-0 cells (setting [2]) came out at 87 nM; with 786-O-Hif-Luc cells (24 h), 68 nM. Moreover, in assay [1] (setting [3]), the IC50 was less than 5 nM.
For `N#Cc1cc(F)cc(Oc2ccc(C(F)(F)F)c3c2CC(F)(F)[C@H]3O)c1` [Compound 37, 3-[(1S)-2,2-Difluoro-1-hydroxy-7-(trifluoromethyl)indan-4-yl]oxy-5-fluoro-benzonitrile], the results for the EC50 in the assay with 786-0 cells (setting [2]) and with 786-O-Hif-Luc cells (24 h) were 6 nM and 5 nM, respectively. In assay [1] (setting [3]), the 50% inhibitory concentration (IC50) is less than 5 nM.
For `CS(=O)(=NC#N)c1ccc(Oc2cc(F)cc(C#N)c2)c2c1[C@H](O)C(F)(F)C2` (single isomer, unassigned) [Compound 20], in that order: 67 nM, 28 nM and 27 nM.
For `O=S(=O)(c1ccc(Oc2cncc(Cl)c2)c2c1[C@H](O)C(F)(F)C2)C(F)(F)F` [Compound 9, (S)-4-((5-Chloropyridin-3-yl)oxy)-2,2-difluoro-7-((trifluoromethyl)sulfonyl)-2,3-dihydro-1H-inden-1-ol], the figures for the concentration giving a half-maximal response (EC50) with 786-0 cells (setting [2]) and in the assay with 786-O-Hif-Luc cells (24 h) were 13 nM and 11 nM, respectively. The half-inhibitory concentration (IC50) in assay [1] (setting [3]) was less than 5 nM.
Regarding `O=S1(=O)c2ccc(Oc3cncc(Cl)c3)c(Br)c2[C@@H](O)C1(F)F` [Compound 185, (R)-4-bromo-5-((5-chloropyridin-3-yl)oxy)-2,2-difluoro-3-hydroxy-2,3-dihydrobenzo[b]thiophene 1,1-dioxide], the EC50 in the assay with 786-0 cells (setting [2]) is 178 nM; with 786-O-Hif-Luc cells (24 h), 98 nM. Moreover, in assay [1] (setting [3]), the IC50 is 124 nM.
Consider `CS(=O)(=NC#N)c1ccc(Oc2cncc(C#N)c2)c2c1[C@H](O)C(F)(F)[C@@H]2F` (single isomer, unassigned) [Compound 83], for which the EC50 in the assay on 786-0 cells (setting [2]) turned out to be 95 nM; in the assay on 786-O-Hif-Luc cells (24 h), 83 nM. Further, the IC50 in assay [1] (setting [3]) amounted to 14 nM.
The like results for `CS(=O)(=O)c1ccc(Oc2cncc(Cl)c2)c2c1[C@H](O)C(F)(F)[C@@H]2F` [Compound 95, (1S,3R)-4-((5-chloropyridin-3-yl)oxy)-2,2,3-trifluoro-7-(methylsulfonyl)-2,3-dihydro-1H-inden-1-ol] were, in that order, 41 nM, 41 nM and 7.2 nM.
As to `O=S1(=O)c2ccc(Oc3cc(F)cc(Cl)c3)c(C(F)F)c2C(O)C1(F)F` (stereo not drawn) [Compound 128, 5-(3-Chloro-5-fluorophenoxy)-4-(difluoromethyl)-2,2-difluoro-3-hydroxy-2,3-dihydrobenzo[b]thiophene 1,1-dioxide], the concentration giving a half-maximal response (EC50) in the assay on 786-0 cells (Homo sapiens, 786-0 cells) worked out at 29 nM; in the assay on 786-O-Hif-Luc cells, 17 nM. Besides, the half-maximal inhibitory concentration (IC50) in assay [1] (SPA IC50, 150 nM Compound 211 probe) was less than 5 nM.
On to `N#Cc1cc(F)cc(Oc2ccc3c(c2Br)[C@@H](O)C(F)(F)S3(=O)=O)c1` [Compound 111, (R)-3-((4-bromo-2,2-difluoro-3-hydroxy-1,1-dioxido-2,3-dihydrobenzo[b]thiophen-5-yl)oxy)-5-fluorobenzonitrile], for which the EC50 in the assay with 786-0 cells (Homo sapiens, 786-0 cells) was determined as 64 nM; in the assay with 786-O-Hif-Luc cells it was 23 nM. In addition, the IC50 in assay [1] (setting [3]) amounted to 7.2 nM.
Turning to `N#Cc1cc(F)cc(Oc2ccc3c(c2Cl)[C@@H](O)C(F)(F)S3(=O)=O)c1` [Compound 195, (R)-3-((4-chloro-2,2-difluoro-3-hydroxy-1,1-dioxido-2,3-dihydrobenzo[b]thiophen-5-yl)oxy)-5-fluorobenzonitrile], the values for the concentration for a half-maximal effect (EC50) with 786-0 cells (setting [2]) and in the assay with 786-O-Hif-Luc cells (24 h) were 77 nM and 47 nM, respectively. Moreover, the half-maximal inhibitory concentration (IC50) in assay [1] (setting [3]) stood at 11 nM.
For `O=S(=O)(c1ccc(Oc2cncc(F)c2)c2c1[C@H](O)C(F)(F)C2)C(F)(F)F` [Compound 73, (S)-2,2-difluoro-4-((5-fluoropyridin-3-yl)oxy)-7-((trifluoromethyl)sulfonyl)-2,3-dihydro-1H-inden-1-ol], in that order: 26 nM, 9 nM and less than 5 nM.
For `CC1(O)c2c(ccc(Oc3cc(F)cc(F)c3)c2C#N)S(=O)(=O)C1(F)F` (stereo not drawn) [Compound 210, 5-(3,5-Difluorophenoxy)-2,2-difluoro-3-hydroxy-3-methyl-2,3-dihydrobenzo[b]thiophene-4-carbonitrile 1,1-dioxide], in that order: 18 nM, 22 nM and 41 nM.
Turning to `CS(=O)(=NC#N)c1ccc(Oc2cncc(C#N)c2)c2c1[C@H](O)C(F)(F)[C@@H]2F` (single isomer, unassigned) [Compound 85], the EC50 in the assay with 786-0 cells (786-0 cells) was 190 nM; in the assay on 786-O-Hif-Luc cells, 114 nM. Also, in assay [1] (setting [3]), the 50% inhibitory concentration (IC50) is 32 nM.
Regarding `N#Cc1cncc(Oc2ccc3c(c2Br)[C@@H](O)C(F)(F)S3(=O)=O)c1` [Compound 188, (R)-5-((4-Bromo-2,2-difluoro-3-hydroxy-1,1-dioxido-2,3-dihydrobenzo[b]thiophen-5-yl)oxy)nicotinonitrile], the concentration giving a half-maximal response (EC50) with 786-0 cells (setting [2]) is 327 nM; in the assay on 786-O-Hif-Luc cells (24 h), 96 nM. Moreover, in assay [1] (setting [3]), the IC50 came to 116 nM.
For `N#Cc1cncc(Oc2ccc(S(=N)(=O)C(F)(F)F)c3c2CC(F)(F)[C@H]3O)c1` (stereo partly drawn) [Compound 79, 5-(((1S)-2,2-difluoro-1-hydroxy-7-(S-(trifluoromethyl)sulfonimidoyl)-2,3-dihydro-1H-inden-4-yl)oxy)nicotinonitrile], the concentration giving a half-maximal response (EC50) turned out to be 116 nM in the assay with 786-0 cells (786-0 cells) and 106 nM with 786-O-Hif-Luc cells. In assay [1] (setting [3]), the 50% inhibitory concentration (IC50) was determined as 23 nM.
For the molecule `CS(=O)(=O)c1ccc(Oc2ccc(F)c(C#N)c2)c2c1[C@H](O)C(F)(F)[C@@H]2F` [Compound 91, 2-Fluoro-5-(((1S,3R)-2,2,3-trifluoro-1-hydroxy-7-(methylsulfonyl)-2,3-dihydro-1H-inden-4-yl)oxy)benzonitrile], the EC50 is 273 nM with 786-0 cells (setting [2]) and 129 nM in the assay on 786-O-Hif-Luc cells (24 h). Besides, the concentration for half-maximal inhibition (IC50) in assay [1] (setting [3]) worked out at 28 nM.
For `CS(=O)(=O)c1ccc(Oc2cncc(Br)c2)c2c1[C@H](O)[C@H](F)[C@@H]2F` [Compound 92, (1S,2S,3R)-4-((5-Bromopyridin-3-yl)oxy)-2,3-difluoro-7-(methylsulfonyl)-2,3-dihydro-1H-inden-1-ol], in that order: 187 nM, 162 nM and 32 nM.
Regarding `N#Cc1cc(Oc2ccc(S(=O)(=O)C(F)(F)F)c3c2CC(F)(F)[C@H]3O)c[n+]([O-])c1` [Compound 31, (S)-3-cyano-5-((2,2-difluoro-1-hydroxy-7-((trifluoromethyl)sulfonyl)-2,3-dihydro-1H-inden-4-yl)oxy)pyridine 1-oxide], the concentration for a half-maximal effect (EC50) was 830 nM in the assay with 786-0 cells (setting [2]) and 160 nM with 786-O-Hif-Luc cells (24 h). In assay [1] (setting [3]), the IC50 is 110 nM.
For `N#Cc1cncc(Oc2ccc(S(=N)(=O)C(F)(F)F)c3c2CC(F)(F)[C@H]3O)c1` (stereo partly drawn) [Compound 78, 5-(((1S)-2,2-difluoro-1-hydroxy-7-(S-(trifluoromethyl)sulfonimidoyl)-2,3-dihydro-1H-inden-4-yl)oxy)nicotinonitrile], in that order: 83 nM, 148 nM and 25 nM.
The like results for `CS(=O)(=O)c1ccc(Oc2cncc(C#N)c2)c2c1[C@H](O)C(F)(F)C2` [Compound 89, (S)-5-((2,2-Difluoro-1-hydroxy-7-(methylsulfonyl)-2,3-dihydro-1H-inden-4-yl)oxy)nicotinonitrile] were, in that order, 146 nM, 488 nM and 180 nM.

The values are drawn from patent US10098878B2, “HIF-2α inhibitors for treating iron overload disorders” (The Board of Regents of the University of Texas System, priority 2014, dated 2018).
